Molecular target: human CSNK1A1 (Homo sapiens (Human), UniProt P48729)
Assay: CSNK1A1 Assay 2 (ADP-Glo, 1 μM ATP)
Type: biochemical
Settings: median, Table 2, read-out: CSNK1A1 Assay 2 IC50 [mol/l] (median)
Summary of the method: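 GST-tagged full-length human CSNK1A1 from insect cells, preincubated 15 min with compound, then reacted 30 min at 22° C with 1 μM ATP and 30 μM biotinylated peptide substrate in pH 7.5 HEPES buffer. ADP measured by ADP-Glo luminescence; normalised to no-inhibitor (0%) and no-enzyme (100%) controls.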

human CSNK1A1, sequence (P48729 whole entry): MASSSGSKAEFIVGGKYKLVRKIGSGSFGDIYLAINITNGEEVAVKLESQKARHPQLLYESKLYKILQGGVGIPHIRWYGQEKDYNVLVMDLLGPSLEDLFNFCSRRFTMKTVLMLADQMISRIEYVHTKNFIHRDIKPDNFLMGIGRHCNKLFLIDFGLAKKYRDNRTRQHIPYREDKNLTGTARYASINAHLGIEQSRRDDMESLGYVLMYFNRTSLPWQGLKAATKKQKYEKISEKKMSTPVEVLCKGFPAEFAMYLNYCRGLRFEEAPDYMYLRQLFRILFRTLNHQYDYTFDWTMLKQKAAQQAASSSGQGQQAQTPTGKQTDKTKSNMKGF

SMILES	IC50
CC1CN(C)C(=O)c2c1[nH]c(-c1ccnc(NC(=O)C(C)c3ccc(F)cc3)c1)c2Nc1ccccc1 (racemic) [Example 9, N-{4-[(7RS)-3-anilino-5,7-dimethyl-4-oxo-4,5,6,7-tetrahydro-1H-pyrrolo[3,2-c]pyridin-2-yl]pyridin-2-yl}-2-(4-fluorophenyl)propanamide]	5.6 nM
Cn1cc(CC(F)(F)F)c2[nH]c(-c3ccnc(NC(=O)C(CC(F)F)c4ccc(F)cc4)c3)c(Nc3ccccc3)c2c1=O (single isomer, unassigned) [Example 37, N-{4-[3-anilino-5-methyl-4-oxo-7-(2,2,2-trifluoroethyl)-4,5-dihydro-1H-pyrrolo[3,2-c]pyridin-2-yl]pyridin-2-yl}-4,4-difluoro-2-(4-fluorophenyl)butanamide]	12 nM
CCc1c[nH]c(=O)c2c(Nc3ccccc3)c(-c3ccnc(NC(=O)C(CC(F)F)c4ccc(F)cc4)c3)[nH]c12 (racemic) [Example 5, N-[4-(3-anilino-7-ethyl-4-oxo-4,5-dihydro-1H-pyrrolo[3,2-c]pyridin-2-yl)pyridin-2-yl]-4,4-difluoro-2-(4-fluorophenyl)butanamide]	7.2 nM
Cc1ccccc1Nc1c(-c2ccnc(NC(=O)Cc3ccc(F)cc3)c2)[nH]c2c(CC(F)(F)F)cn(C)c(=O)c12 [Example 33, 2-(4-fluorophenyl)-N-{4-[5-methyl-3-(2-methylanilino)-4-oxo-7-(2,2,2-trifluoroethyl)-4,5-dihydro-1H-pyrrolo[3,2-c]pyridin-2-yl]pyridin-2-yl}acetamide]	8.6 nM
C[C@@H](C(=O)Nc1cc(-c2[nH]c3ccn(C)c(=O)c3c2Nc2ccccc2)ccn1)c1ccc(F)cc1 (single isomer, unassigned) [Example 27]	21 nM
C[C@H](C(=O)Nc1cc(-c2[nH]c3ccn(C)c(=O)c3c2Nc2ccccc2)ccn1)c1ccc(F)cc1 (single isomer, unassigned) [Example 26]	5.9 nM
Cn1cc(CC(F)(F)F)c2[nH]c(-c3ccnc(NC(=O)Cc4ccc(F)cc4)c3)c(Nc3ccccc3)c2c1=O [Example 34, N-{4-[3-anilino-5-methyl-4-oxo-7-(2,2,2-trifluoroethyl)-4,5-dihydro-1H-pyrrolo[3,2-c]pyridin-2-yl]pyridin-2-yl}-2-(4-fluorophenyl)acetamide]	4.3 nM
CN1CC(CC(F)F)c2[nH]c(-c3ccnc(NC(=O)Cc4ccc(F)cc4)c3)c(Nc3ccccc3)c2C1=O (single isomer, unassigned) [Example 44, N-{4-[3-anilino-7-(2,2-difluoroethyl)-5-methyl-4-oxo-4,5,6,7-tetrahydro-1H-pyrrolo[3,2-c]pyridin-2-yl]pyridin-2-yl}-2-(4-fluorophenyl)acetamide]	3.3 nM
CN1CC(CC(F)(F)F)c2[nH]c(-c3ccnc(NC(=O)Cc4ccc(F)cc4)c3)c(Nc3ccccc3)c2C1=O (single isomer, unassigned) [Example 16, N-{4-[3-anilino-5-methyl-4-oxo-7-(2,2,2-trifluoroethyl)-4,5,6,7-tetrahydro-1H-pyrrolo[3,2-c]pyridin-2-yl]pyridin-2-yl}-2-(4-fluorophenyl)acetamide]	4.3 nM
CN1CC(CC(F)(F)F)c2[nH]c(-c3ccnc(NC(=O)C(CC(F)F)c4ccc(F)cc4)c3)c(Nc3cscn3)c2C1=O (single isomer, unassigned) [Example 53, (2R or S)-4,4-difluoro-2-(4-fluorophenyl)-N-{4-[(7R or S)-5-methyl-4-oxo-3-[(1,3-thiazol-4-yl)amino]-7-(2,2,2-trifluoroethyl)-4,5,6,7-tetrahydro-1H-pyrrolo[3,2-c]pyridin-2-yl]pyridin-2-yl}butanamide]	21 nM
CN1CC(CC2CC2)c2[nH]c(-c3ccnc(NC(=O)Cc4ccc(F)cc4)c3)c(Nc3cscn3)c2C1=O (racemic) [Example 49, N-{4-[(7RS)-7-(cyclopropylmethyl)-5-methyl-4-oxo-3-(1,3-thiazol-4-ylamino)-4,5,6,7-tetrahydro-1H-pyrrolo[3,2-c]pyridin-2-yl]pyridin-2-yl}-2-(4-fluorophenyl)acetamide]	5.9 nM
CN1CC(CC2CC2)c2[nH]c(-c3ccnc(NC(=O)Cc4ccc(F)cc4)c3)c(Nc3ccccc3)c2C1=O (single isomer, unassigned) [Example 19, N-{4-[3-anilino-7-(cyclopropylmethyl)-5-methyl-4-oxo-4,5,6,7-tetrahydro-1H-pyrrolo[3,2-c]pyridin-2-yl]pyridin-2-yl}-2-(4-fluorophenyl)acetamide]	3.9 nM
O=C1N[C@@H]2CCC[C@@H]2c2[nH]c(-c3ccnc(NC(=O)C(CC(F)F)c4ccc(F)cc4)c3)c(Nc3ccccc3)c21 (mixture of isomers) [Example 21, (2RS)—N-{4-[cis-3-anilino-4-oxo-1,4,5,5a,6,7,8,8a-octahydrocyclopenta[b]pyrrolo[2,3-d]pyridin-2-yl]pyridin-2-yl}-4,4-difluoro-2-(4-fluorophenyl)butanamide]	11 nM
Cc1cn(C)c(=O)c2c(Nc3ccccc3)c(-c3ccnc(NC(=O)C(CC(F)F)c4ccc(F)cc4)c3)[nH]c12 (single isomer, unassigned) [Example 12, N-[4-(3-anilino-5,7-dimethyl-4-oxo-4,5-dihydro-1H-pyrrolo[3,2-c]pyridin-2-yl)pyridin-2-yl]-4,4-difluoro-2-(4-fluorophenyl)butanamide]	180 nM
CN1CC(CC2CC2)c2[nH]c(-c3ccnc(NC(=O)Cc4ccc(F)cc4)c3)c(Nc3ccccc3)c2C1=O (racemic) [Example 18, N-{4-[3-anilino-7-(cyclopropylmethyl)-5-methyl-4-oxo-4,5,6,7-tetrahydro-1H-pyrrolo[3,2-c]pyridin-2-yl]pyridin-2-yl}-2-(4-fluorophenyl)acetamide]	6.6 nM
Cn1ccc2[nH]c(-c3ccnc(NC(=O)C(CC(F)F)c4ccc(F)cc4)c3)c(Nc3ccccc3)c2c1=O (racemic) [Example 28, N-[4-(3-anilino-5-methyl-4-oxo-4,5-dihydro-1H-pyrrolo[3,2-c]pyridin-2-yl)pyridin-2-yl]-4,4-difluoro-2-(4-fluorophenyl)butanamide]	5.2 nM
Cn1cc(CC(F)F)c2[nH]c(-c3ccnc(NC(=O)Cc4ccc(F)cc4)c3)c(Nc3ccccc3)c2c1=O [Example 45, N-{4-[3-anilino-7-(2,2-difluoroethyl)-5-methyl-4-oxo-4,5-dihydro-1H-pyrrolo[3,2-c]pyridin-2-yl]pyridin-2-yl}-2-(4-fluorophenyl)acetamide]	5.7 nM
Cn1cc(CC2CC2)c2[nH]c(-c3ccnc(NC(=O)Cc4ccc(F)cc4)c3)c(Nc3ccccc3)c2c1=O [Example 32, N-{4-[3-anilino-7-(cyclopropylmethyl)-5-methyl-4-oxo-4,5-dihydro-1H-pyrrolo[3,2-c]pyridin-2-yl]pyridin-2-yl}-2-(4-fluorophenyl)acetamide]	27 nM
CC1CN(C)C(=O)c2c1[nH]c(-c1ccnc(NC(=O)Cc3ccc(F)cc3)c1)c2Nc1ccccc1 (single isomer, unassigned; (+)) [Example 8, (+)-N-{4-[3-anilino-5,7-dimethyl-4-oxo-4,5,6,7-tetrahydro-1H-pyrrolo[3,2-c]pyridin-2-yl]pyridin-2-yl}-2-(4-fluorophenyl)acetamide]	12 nM
